Normalised inhibition (eCFP-eYFP dual reporter) data for 20 substances are collected here from the OligoGym collection.

Oligonucleotides are given in HELM: sugar(base)linkage, 5' to 3'; d 2'-deoxyribose, r ribose, m 2'-O-methylribose, p phosphate. ss, as = sense and antisense strand
Note: test concentration or dose not given here.

In the data set the target is UBE2K. The data set can be described thus: reporter assay of Huesken 2005. The conditions noted are these: siRNA.
Substance “RNA1{r(A)p.r(C)p.r(U)p.r(A)p.r(U)p.r(U)p.r(G)p.r(G)p.r(C)p.r(A)p.r(G)p.r(C)p.r(U)p.r(G)p.r(C)p.r(A)p.r(G)p.r(A)p.r(G)p.d(T)p.d(T)}|RNA2{r(C)p.r(U)p.r(C)p.r(U)p.r(G)p.r(C)p.r(A)p.r(G)p.r(C)p.r(U)p.r(G)p.r(C)p.r(C)p.r(A)p.r(A)p.r(U)p.r(A)p.r(G)p.r(U)p.d(G)p.d(C)}$$$RNA1{StrandType:ss}|RNA2{StrandType:as}$” had a normalised inhibition (eCFP-eYFP dual reporter) of 62%. Next, “RNA1{r(A)p.r(U)p.r(A)p.r(G)p.r(C)p.r(A)p.r(G)p.r(G)p.r(A)p.r(C)p.r(C)p.r(U)p.r(C)p.r(C)p.r(A)p.r(G)p.r(A)p.r(C)p.r(A)p.d(T)p.d(T)}|RNA2{r(U)p.r(G)p.r(U)p.r(C)p.r(U)p.r(G)p.r(G)p.r(A)p.r(G)p.r(G)p.r(U)p.r(C)p.r(C)p.r(U)p.r(G)p.r(C)p.r(U)p.r(A)p.r(U)p.d(T)p.d(T)}$$$RNA1{StrandType:ss}|RNA2{StrandType:as}$”: 69.8%. Consider “RNA1{r(A)p.r(G)p.r(G)p.r(A)p.r(U)p.r(G)p.r(C)p.r(U)p.r(G)p.r(U)p.r(A)p.r(G)p.r(U)p.r(A)p.r(G)p.r(C)p.r(A)p.r(A)p.r(A)p.d(T)p.d(T)}|RNA2{r(U)p.r(U)p.r(U)p.r(G)p.r(C)p.r(U)p.r(A)p.r(C)p.r(U)p.r(A)p.r(C)p.r(A)p.r(G)p.r(C)p.r(A)p.r(U)p.r(C)p.r(C)p.r(U)p.d(G)p.d(T)}$$$RNA1{StrandType:ss}|RNA2{StrandType:as}$”, for which the normalised inhibition (eCFP-eYFP dual reporter) came to 92.1%. “RNA1{r(C)p.r(A)p.r(G)p.r(A)p.r(C)p.r(A)p.r(C)p.r(A)p.r(C)p.r(C)p.r(A)p.r(U)p.r(A)p.r(U)p.r(G)p.r(A)p.r(A)p.r(G)p.r(G)p.d(T)p.d(T)}|RNA2{r(C)p.r(C)p.r(U)p.r(U)p.r(C)p.r(A)p.r(U)p.r(A)p.r(U)p.r(G)p.r(G)p.r(U)p.r(G)p.r(U)p.r(G)p.r(U)p.r(C)p.r(U)p.r(G)p.d(G)p.d(A)}$$$RNA1{StrandType:ss}|RNA2{StrandType:as}$” displayed a normalised inhibition (eCFP-eYFP dual reporter) of 72.8%. In the case of “RNA1{r(G)p.r(U)p.r(U)p.r(U)p.r(G)p.r(G)p.r(A)p.r(U)p.r(A)p.r(U)p.r(C)p.r(C)p.r(U)p.r(G)p.r(A)p.r(A)p.r(A)p.r(G)p.r(A)p.d(T)p.d(T)}|RNA2{r(U)p.r(C)p.r(U)p.r(U)p.r(U)p.r(C)p.r(A)p.r(G)p.r(G)p.r(A)p.r(U)p.r(A)p.r(U)p.r(C)p.r(C)p.r(A)p.r(A)p.r(A)p.r(C)p.d(A)p.d(A)}$$$RNA1{StrandType:ss}|RNA2{StrandType:as}$”, the normalised inhibition (eCFP-eYFP dual reporter) worked out at 87.1%. On to “RNA1{r(A)p.r(A)p.r(A)p.r(U)p.r(A)p.r(G)p.r(C)p.r(A)p.r(G)p.r(G)p.r(A)p.r(C)p.r(C)p.r(U)p.r(C)p.r(C)p.r(A)p.r(G)p.r(A)p.d(T)p.d(T)}|RNA2{r(U)p.r(C)p.r(U)p.r(G)p.r(G)p.r(A)p.r(G)p.r(G)p.r(U)p.r(C)p.r(C)p.r(U)p.r(G)p.r(C)p.r(U)p.r(A)p.r(U)p.r(U)p.r(U)p.d(C)p.d(T)}$$$RNA1{StrandType:ss}|RNA2{StrandType:as}$”, for which the normalised inhibition (eCFP-eYFP dual reporter) came out at 65.4%. Substance “RNA1{r(A)p.r(U)p.r(U)p.r(G)p.r(U)p.r(C)p.r(A)p.r(U)p.r(U)p.r(G)p.r(C)p.r(A)p.r(A)p.r(G)p.r(C)p.r(A)p.r(C)p.r(U)p.r(A)p.d(T)p.d(T)}|RNA2{r(U)p.r(A)p.r(G)p.r(U)p.r(G)p.r(C)p.r(U)p.r(U)p.r(G)p.r(C)p.r(A)p.r(A)p.r(U)p.r(G)p.r(A)p.r(C)p.r(A)p.r(A)p.r(U)p.d(A)p.d(A)}$$$RNA1{StrandType:ss}|RNA2{StrandType:as}$” registered a normalised inhibition (eCFP-eYFP dual reporter) of 85.4%. “RNA1{r(G)p.r(G)p.r(C)p.r(A)p.r(G)p.r(C)p.r(U)p.r(G)p.r(C)p.r(A)p.r(G)p.r(A)p.r(G)p.r(C)p.r(C)p.r(A)p.r(G)p.r(A)p.r(U)p.d(T)p.d(T)}|RNA2{r(A)p.r(U)p.r(C)p.r(U)p.r(G)p.r(G)p.r(C)p.r(U)p.r(C)p.r(U)p.r(G)p.r(C)p.r(A)p.r(G)p.r(C)p.r(U)p.r(G)p.r(C)p.r(C)p.d(A)p.d(A)}$$$RNA1{StrandType:ss}|RNA2{StrandType:as}$” displayed a normalised inhibition (eCFP-eYFP dual reporter) of 81.8%. “RNA1{r(A)p.r(U)p.r(G)p.r(U)p.r(U)p.r(C)p.r(A)p.r(A)p.r(A)p.r(C)p.r(A)p.r(G)p.r(A)p.r(C)p.r(A)p.r(G)p.r(C)p.r(U)p.r(C)p.d(T)p.d(T)}|RNA2{r(G)p.r(A)p.r(G)p.r(C)p.r(U)p.r(G)p.r(U)p.r(C)p.r(U)p.r(G)p.r(U)p.r(U)p.r(U)p.r(G)p.r(A)p.r(A)p.r(C)p.r(A)p.r(U)p.d(T)p.d(T)}$$$RNA1{StrandType:ss}|RNA2{StrandType:as}$” yielded a normalised inhibition (eCFP-eYFP dual reporter) of 64.6%. “RNA1{r(A)p.r(G)p.r(G)p.r(A)p.r(C)p.r(C)p.r(U)p.r(C)p.r(C)p.r(A)p.r(G)p.r(A)p.r(C)p.r(A)p.r(C)p.r(A)p.r(C)p.r(C)p.r(A)p.d(T)p.d(T)}|RNA2{r(U)p.r(G)p.r(G)p.r(U)p.r(G)p.r(U)p.r(G)p.r(U)p.r(C)p.r(U)p.r(G)p.r(G)p.r(A)p.r(G)p.r(G)p.r(U)p.r(C)p.r(C)p.r(U)p.d(G)p.d(C)}$$$RNA1{StrandType:ss}|RNA2{StrandType:as}$” registered a normalised inhibition (eCFP-eYFP dual reporter) of 74.6%. Take “RNA1{r(A)p.r(U)p.r(A)p.r(C)p.r(C)p.r(A)p.r(G)p.r(A)p.r(A)p.r(A)p.r(C)p.r(A)p.r(U)p.r(A)p.r(C)p.r(C)p.r(C)p.r(A)p.r(U)p.d(T)p.d(T)}|RNA2{r(A)p.r(U)p.r(G)p.r(G)p.r(G)p.r(U)p.r(A)p.r(U)p.r(G)p.r(U)p.r(U)p.r(U)p.r(C)p.r(U)p.r(G)p.r(G)p.r(U)p.r(A)p.r(U)p.d(T)p.d(T)}$$$RNA1{StrandType:ss}|RNA2{StrandType:as}$”: the normalised inhibition (eCFP-eYFP dual reporter) amounted to 76.3%. Next, “RNA1{r(U)p.r(U)p.r(U)p.r(U)p.r(A)p.r(C)p.r(A)p.r(G)p.r(A)p.r(A)p.r(U)p.r(U)p.r(A)p.r(A)p.r(G)p.r(A)p.r(G)p.r(G)p.r(A)p.d(T)p.d(T)}|RNA2{r(U)p.r(C)p.r(C)p.r(U)p.r(C)p.r(U)p.r(U)p.r(A)p.r(A)p.r(U)p.r(U)p.r(C)p.r(U)p.r(G)p.r(U)p.r(A)p.r(A)p.r(A)p.r(A)p.d(T)p.d(T)}$$$RNA1{StrandType:ss}|RNA2{StrandType:as}$”: 47.6%; “RNA1{r(G)p.r(C)p.r(A)p.r(G)p.r(C)p.r(U)p.r(G)p.r(C)p.r(A)p.r(A)p.r(U)p.r(G)p.r(A)p.r(C)p.r(U)p.r(C)p.r(U)p.r(C)p.r(C)p.d(T)p.d(T)}|RNA2{r(G)p.r(G)p.r(A)p.r(G)p.r(A)p.r(G)p.r(U)p.r(C)p.r(A)p.r(U)p.r(U)p.r(G)p.r(C)p.r(A)p.r(G)p.r(C)p.r(U)p.r(G)p.r(C)p.d(C)p.d(C)}$$$RNA1{StrandType:ss}|RNA2{StrandType:as}$”: 47.4%.

“RNA1{r(A)p.r(U)p.r(C)p.r(A)p.r(A)p.r(U)p.r(G)p.r(G)p.r(G)p.r(C)p.r(A)p.r(G)p.r(C)p.r(U)p.r(G)p.r(C)p.r(A)p.r(A)p.r(U)p.d(T)p.d(T)}|RNA2{r(A)p.r(U)p.r(U)p.r(G)p.r(C)p.r(A)p.r(G)p.r(C)p.r(U)p.r(G)p.r(C)p.r(C)p.r(C)p.r(A)p.r(U)p.r(U)p.r(G)p.r(A)p.r(U)p.d(C)p.d(T)}$$$RNA1{StrandType:ss}|RNA2{StrandType:as}$”: the normalised inhibition (eCFP-eYFP dual reporter) worked out at 48.4%. “RNA1{r(U)p.r(G)p.r(A)p.r(A)p.r(G)p.r(G)p.r(A)p.r(G)p.r(G)p.r(A)p.r(A)p.r(G)p.r(A)p.r(U)p.r(A)p.r(C)p.r(C)p.r(A)p.r(A)p.d(T)p.d(T)}|RNA2{r(U)p.r(U)p.r(G)p.r(G)p.r(U)p.r(A)p.r(U)p.r(C)p.r(U)p.r(U)p.r(C)p.r(C)p.r(U)p.r(C)p.r(C)p.r(U)p.r(U)p.r(C)p.r(A)p.d(T)p.d(A)}$$$RNA1{StrandType:ss}|RNA2{StrandType:as}$” showed a normalised inhibition (eCFP-eYFP dual reporter) of 82.7%. Next, “RNA1{r(A)p.r(A)p.r(U)p.r(A)p.r(G)p.r(C)p.r(A)p.r(G)p.r(G)p.r(A)p.r(C)p.r(C)p.r(U)p.r(C)p.r(C)p.r(A)p.r(G)p.r(A)p.r(C)p.d(T)p.d(T)}|RNA2{r(G)p.r(U)p.r(C)p.r(U)p.r(G)p.r(G)p.r(A)p.r(G)p.r(G)p.r(U)p.r(C)p.r(C)p.r(U)p.r(G)p.r(C)p.r(U)p.r(A)p.r(U)p.r(U)p.d(T)p.d(C)}$$$RNA1{StrandType:ss}|RNA2{StrandType:as}$”: 56.1%; “RNA1{r(G)p.r(A)p.r(A)p.r(A)p.r(U)p.r(G)p.r(U)p.r(U)p.r(C)p.r(A)p.r(A)p.r(A)p.r(C)p.r(A)p.r(G)p.r(A)p.r(C)p.r(A)p.r(G)p.d(T)p.d(T)}|RNA2{r(C)p.r(U)p.r(G)p.r(U)p.r(C)p.r(U)p.r(G)p.r(U)p.r(U)p.r(U)p.r(G)p.r(A)p.r(A)p.r(C)p.r(A)p.r(U)p.r(U)p.r(U)p.r(C)p.d(G)p.d(G)}$$$RNA1{StrandType:ss}|RNA2{StrandType:as}$”: 76.6%. In turn, “RNA1{r(C)p.r(C)p.r(U)p.r(A)p.r(A)p.r(U)p.r(A)p.r(U)p.r(U)p.r(A)p.r(G)p.r(U)p.r(U)p.r(C)p.r(C)p.r(G)p.r(U)p.r(C)p.r(A)p.d(T)p.d(T)}|RNA2{r(U)p.r(G)p.r(A)p.r(C)p.r(G)p.r(G)p.r(A)p.r(A)p.r(C)p.r(U)p.r(A)p.r(A)p.r(U)p.r(A)p.r(U)p.r(U)p.r(A)p.r(G)p.r(G)p.d(A)p.d(T)}$$$RNA1{StrandType:ss}|RNA2{StrandType:as}$” displayed a normalised inhibition (eCFP-eYFP dual reporter) of 74.9%. Next, “RNA1{r(A)p.r(U)p.r(C)p.r(C)p.r(U)p.r(A)p.r(A)p.r(U)p.r(A)p.r(U)p.r(U)p.r(A)p.r(G)p.r(U)p.r(U)p.r(C)p.r(C)p.r(G)p.r(U)p.d(T)p.d(T)}|RNA2{r(A)p.r(C)p.r(G)p.r(G)p.r(A)p.r(A)p.r(C)p.r(U)p.r(A)p.r(A)p.r(U)p.r(A)p.r(U)p.r(U)p.r(A)p.r(G)p.r(G)p.r(A)p.r(U)p.d(G)p.d(C)}$$$RNA1{StrandType:ss}|RNA2{StrandType:as}$”: 53.2%. Next, “RNA1{r(A)p.r(A)p.r(A)p.r(U)p.r(C)p.r(C)p.r(C)p.r(G)p.r(A)p.r(A)p.r(A)p.r(U)p.r(G)p.r(U)p.r(U)p.r(C)p.r(A)p.r(A)p.r(A)p.d(T)p.d(T)}|RNA2{r(U)p.r(U)p.r(U)p.r(G)p.r(A)p.r(A)p.r(C)p.r(A)p.r(U)p.r(U)p.r(U)p.r(C)p.r(G)p.r(G)p.r(G)p.r(A)p.r(U)p.r(U)p.r(U)p.d(T)p.d(G)}$$$RNA1{StrandType:ss}|RNA2{StrandType:as}$”: 73.8%.
